This is an account of results in patent publication US11565996B2, “Compounds for use as inhibitors of alternative oxidase or cytochrome bc1 complex” (AlternOx Scientific Limited, priority 2012, dated 2023).

In general, IC50 refers to the point on the concentration scale where inhibition reaches its midpoint.

Each structure is given as a SMILES string. “And” between values parts separate entries of the source, which are not always exact repeats. Equal entries are not always repeated. Where two headings read alike, the source gives them in different places.

Assay [1] concerns the target cytochrome bc1 complex (Solanum tuberosum (Potato), UniProt P29757). The experiment in a line: Respiratory activity of potato mitochondria lacking AOX (cytochrome bc1 complex), oxygen electrode. In kind it is biochemical. The conditions noted are these: 0.3 mg potato mitochondria respiring on 1 mM NADH, 25° C., 1 μM CCCP. As to the method:
(§1) Following on from this work, the inventors set out to test whether or not these compounds also have any effect on the respiratory activity of cytochrome bc1 complex.
(§2) Respiratory activity was measured in a medium containing 0.3M mannitol, 10 mM KCl, 5 mM MgCl2, 1 mM potassium phosphate and 10 mM MOPS (3-(N-morpholino)propanesulfonic acid) buffer pH7.4. Either 0.9 mg of rat liver mitochondria respiring on 5 mM succinate or 0.3 mg potato mitochondria respiring on 1 mM NADH were used. Respiration was measured using a Rank oxygen electrode of 0.4 ml volume at 25° C. in the presence of 1 μM CCCP (Carbonyl cyanide […]). The results were compared with ascochlorin (a known bc1 inhibitor) and azoxystrobin (a commercial fungicide targeted at the bc1 complex).
(§3) Tables 3 and 4 summarise the concentration of inhibitor that was required to reduce the respiration of cytochrome bc1 complex (in the absence of AOX) by 50%. […] The lower the IC50 value the better, since it means that a lower amount of the compound is needed to halve the respiratory activity.

The next assay has as its system other quinol oxidases. The experiment in a line: Specificity versus other quinol oxidases. Type of assay: biochemical. The conditions noted are these: specific for membrane-bound and purified AOX.
Assay [2] deals with Qo and Qi binding-sites of cytochrome bc1 complex. Put plainly: Titration using mitochondria in which the alternative oxidase is absent: bc1 binding sites inhibited. To be noted: mitochondria without AOX. In kind it is biochemical.
Source text: as §1

The target of assay [3] is cytochrome bc1 complex (Rattus norvegicus (Rat), UniProt P00159). Put plainly: Respiratory activity of rat liver mitochondria lacking AOX (cytochrome bc1 complex), oxygen electrode. Type of assay: biochemical. To be noted: 0.9 mg rat liver mitochondria respiring on 5 mM succinate; 25° C.; 1 μM CCCP. As to the method:
as §1, §2, §3

The target of the next assay is recombinant AOX protein (Trypanosoma brucei brucei, UniProt Q26710). Put plainly: biochemical. To be noted: purified recombinant AOX protein; oxygen consumption; 1 mM NADH as substrate. As to the method:
Table 1 summarises the concentration of inhibitor required to reduce the respiration of purified recombinant AOX protein by 50%. Respiration was measured as the rate of oxygen consumption in the presence of 1 mM NADH as substrate and the numbers represent the final I50 concentration of the inhibitor.

Setting [4] is: read-out: IC50 (Potato mitochondria).

As for `CC(C)=CCC/C(C)=C/Cc1c(O)c(Cl)c(C)c(C=O)c1O` [Colletochlorin B], the IC50 at cytochrome bc1 complex [1] (setting [4]) amounted to 750 nM. The “inhibition of other quinol oxidases” value in the assay with other quinol oxidases is “did not appear to inhibit other quinol oxidases”. In addition, in assay [2], the “cytochrome bc1 complex binding sites inhibited” value is “both the Qo and Qi binding-sites”.

Regarding `C/C(=C\Cc1c(O)c(Cl)c(C)c(C=O)c1O)CC/C=C(\C)[C@@H]1CC(=O)C(C)(C)O1` [Ascofuranone], the IC50 against cytochrome bc1 complex [1] (IC50 (Potato mitochondria)) is ~30000 nM and 30000 nM.

With `CO/C=C(/C(=O)OC)c1ccccc1Oc1cc(Oc2ccccc2C#N)ncn1` [Azoxystrobin, azoxystrobin], the half-inhibitory concentration (IC50) is ~525 nM and 525 nM at cytochrome bc1 complex [3]; ~1400 nM and 1400 nM on cytochrome bc1 complex [1] (setting [4]).

`CCCCCCCCOC(=O)c1cc(O)c(O)c(O)c1` [Octyl Gallate]: the IC50 on recombinant AOX protein turned out to be 105 nM.

As for `CC(/C=C/[C@@]1(C)[C@H](C)CCC(=O)[C@@H]1C)=C\Cc1c(O)c(Cl)c(C)c(C=O)c1O` [Ascochlorin, ascochlorin], the IC50 amounted to 187 nM against cytochrome bc1 complex [3] and 500 nM at cytochrome bc1 complex [1] (IC50 (Potato mitochondria)).
